We go through seven molecules from the NIST ThermoML archive (doi:10.1016/j.jct.2005.04.006).

The structures appear in SMILES notation. ± gives the expanded uncertainty stated by the source.

The conditions of data set [1]: Liquid; for mass density: 298.15 K, 101.33 kPa.
Data set [2] in a line: refractive index (Na D-line) (dimensionless). The conditions noted are these: 298.15 K; 101.33 kPa; Liquid.

`Cc1cccc(C)c1` [1,3-dimethylbenzene]: the mass density in data set [1] was 860.1 ± 2.1 kg/m3. Moreover, in data set [1] (409.35 K), the “vapor or sublimation pressure” value is 95.8 ± 5 kPa. Besides, the refractive index in data set [2] is 1.4946 ± 0.0016.

Take `Cc1ccc(C)cc1` [1,4-dimethylbenzene]: the mass density in data set [1] was 856.6 ± 2.1 kg/m3. The “vapor or sublimation pressure” value in data set [1] (409.35 K) was 95.8 ± 5 kPa. The refractive index in data set [2] is recorded as 1.4933 ± 0.0016.

Take `CC(C)CC(C)(C)C` [2,2,4-trimethylpentane]: the mass density in data set [1] stood at 687.8 ± 1.5 kg/m3. For the same molecule, the “vapor or sublimation pressure” value in data set [1] (370.55 K) came out at 95.8 ± 5 kPa. Further, the refractive index in data set [2] amounted to 1.3889 ± 0.0016.

Regarding `CC(C)(C)O` [2-methylpropan-2-ol], the mass density in data set [1] is 781.2 ± 1.8 kg/m3. Also, the “vapor or sublimation pressure” value in data set [1] (354.15 K) was found to be 95.8 ± 5 kPa. The refractive index in data set [2] was 1.3852 ± 0.0016.

For the molecule `Clc1ccccc1` [chlorobenzene], the mass density in data set [1] is 1100.9 ± 2.9 kg/m3. Also, the “vapor or sublimation pressure” value in data set [1] (402.95 K) amounted to 95.8 ± 5 kPa. The refractive index in data set [2] is recorded as 1.5219 ± 0.0016.

For `CCO` [ethanol], the mass density in data set [1] amounted to 784.9 ± 1.8 kg/m3. Also, the “vapor or sublimation pressure” value in data set [1] (350.05 K) was found to be 95.8 ± 5 kPa. Also, in data set [2], the refractive index was 1.3594 ± 0.0016.

Turning to `CCCCCC` [hexane], in data set [1], the mass density is reported as 654.8 ± 1.4 kg/m3. Also, the “vapor or sublimation pressure” value in data set [1] (340.25 K) worked out at 95.8 ± 5 kPa. In addition, the refractive index in data set [2] is on record as 1.3723 ± 0.0016.

The term mass density denotes the mass of a sample divided by its volume. A word on the vapor or sublimation pressure: it is the pressure of vapour in equilibrium with the condensed phase. The term refractive index denotes a measure of how strongly the sample bends light.
